Results as given in patent US7446107B2, “Crystalline forms of conazoles and methods of making and using the same” (Transform Pharmaceuticals, Inc., priority 2002, dated 2008).

Assays:
[1] = Hygroscopicity determination (humidity chambers); format: physicochemical; conditions: 75% relative humidity, 25° C., 8 hours
Protocol: The hygroscopicity profiles for a sample from each of vials 1-5, as well as cis-itraconazole free base, were determined by exposing a sample from each of vials 1-5 to four different environments of varying relative humidity (namely, 0%, 30%, 57%, and 75%), and incubating the samples in that environment for about 8 hours at room temperature (20-25° C.). The humidity chambers consisted of desiccators with desiccants/salt baths in the bottom, above which the open vials containing samples were suspended.
The relative hygroscopicity of each sample was determined using methods well known to one skilled in the pharmaceutical arts as reported in “Pharmaceutical Preformulation & Formulation: A Practical Guide From Candidate Drug Selection to Commercial Dosage Form,” Ed. Mark Gibson, published by IHS Health Group Co, p. 49 (2001), which is incorporated herein by reference in its entirety.

[2] = cited from earlier work
[3] = Solubility in pH 1 buffer (HPLC-UV); format: physicochemical
Protocol: Beginning with the longest time point, pH 1 buffer (1 N HCl adjusted to pH 1 using 1 N NaOH) was added to each of the wells containing samples until completion of the shortest time points. The samples were vigorously stirred throughout the experiment. At the end of the assay, the solution and solid states of all the samples were separated by centrifugation in a polyvinylidene fluoride 96-well filter plate for 2 minutes at 500 xg.
Approximately 30 μl of solution was collected from the solution state of each sample and diluted in 120 μl of methanol in glass vials. Aluminum caps were crimped on the vial tops to prevent evaporation of methanol.

[4] = Physical form after incubation in pH 1 buffer (PXRD); format: physicochemical; conditions: 2 hours, room temperature
Protocol: 70 μl of pH 1 buffer (1 N HCl adjusted to pH 1 using 1 N NaOH) was added to the same well. The sample was incubated at room temperature with vigorous mixing for 2 hours. At the end of the assay, the 384 well plate was centrifuged for 2 minutes at 500 xg and the supernatant was removed by aspiration.
The remaining solid state was analyzed by X-ray powder diffraction in a borosilicate tube, but otherwise using the same equipment, software, procedures, and parameters described in Example 1.

[5] = Solubility in THF (observation during synthesis); format: physicochemical; conditions: up to 70° C.
Description: Thereafter, the vials were removed from the oven, the caps from all the bottles were removed, and the samples were allowed to evaporate in air under ambient conditions. Once significant amounts of solids were present in a sample, the remaining liquid in the sample was removed by pipetting out the liquid phase and using suction filtration with Whatman filter paper to rescue any solid that may have been dispersed in the liquid phase. The remaining solid in the liquid phase and the filtrate were dried in the vacuum oven (VWR Scientific, Model # 1400E) under vacuum for at least 12 hours. With regard to vial 3, the solid crashed out of solution as soon as the acid was added and never went into solution even at 70° C.; however, the solid in the sample was harvested in the same manner as the other samples.

Compound: CCC(C)n1ncn(-c2ccc(N3CCN(c4ccc(OCC5COC(Cn6cncn6)(c6ccc(Cl)cc6Cl)O5)cc4)CC3)cc2)c1=O.O=C(O)C(O)C(O)C(=O)O (racemic) [cis-itraconazole DL-tartrate]
- relative hygroscopicity [1]: slightly hygroscopic (greater than 0.2% and less than 2% weight loss after incubation in 75% relative humidity at 25 °C for 8 hours)

Compound: CCC(C)n1ncn(-c2ccc(N3CCN(c4ccc(OC[C@H]5CO[C@](Cn6cncn6)(c6ccc(Cl)cc6Cl)O5)cc4)CC3)cc2)c1=O (mixture of isomers) [cis-itraconazole free base, (±)cis-4-[4-[4-[4-[[2-(2,4-dichlorophenyl)-2-(1H-1,2,4-triazol-1-ylmethyl)-1,3-dioxolan-4-yl]methoxy]phenyl]-1-piperazinyl]phenyl]-2,4-dihydro-2-(1-methylpropyl)-3H-1,2,4-triazol-3-one, reference compound]
- solubility in water [2]: only very sparingly soluble in water
- change of solubility with time ([3]; measured period up to 120 minutes): did not change over the measured period of time

Compound: CCC(C)n1ncn(-c2ccc(N3CCN(c4ccc(OCC5COC(Cn6cncn6)(c6ccc(Cl)cc6Cl)O5)cc4)CC3)cc2)c1=O.O=S(=O)(O)c1ccccc1 (stereo not drawn) [cis-itraconazole benzensulfonate]
- relative hygroscopicity [1]: hygroscopic (greater than 2% and less than 15% weight loss after incubation in 75% relative humidity at 25 °C for 8 hours)

Compound: CCC(C)n1ncn(-c2ccc(N3CCN(c4ccc(OCC5COC(Cn6cncn6)(c6ccc(Cl)cc6Cl)O5)cc4)CC3)cc2)c1=O.O=C(O)C=CC(=O)O (stereo not drawn) [cis-itraconazole fumaric acid co-crystal]
- solubility relative to free base ([3]; 15 minutes): at least 4 fold
- solubility relative to free base ([3]; 4 hours): approximately 1.5 fold
- relative hygroscopicity [1]: slightly hygroscopic (greater than 0.2% and less than 2% weight loss after incubation in 75% relative humidity at 25 °C for 8 hours)
- solid state form after incubation [4]: did not change form

Compound: CCC(C)n1ncn(-c2ccc(N3CCN(c4ccc(OCC5COC(Cn6cncn6)(c6ccc(Cl)cc6Cl)O5)cc4)CC3)cc2)c1=O.O=P(O)(O)O (stereo not drawn) [cis-itraconazole phosphate]
- relative hygroscopicity [1]: slightly hygroscopic (greater than 0.2% and less than 2% weight loss after incubation in 75% relative humidity at 25 °C for 8 hours)

Compound: CCC(C)n1ncn(-c2ccc(N3CCN(c4ccc(OCC5COC(Cn6cncn6)(c6ccc(Cl)cc6Cl)O5)cc4)CC3)cc2)c1=O.O=S(=O)(O)O (stereo not drawn) [cis-itraconazole sulfate]
- solubility in THF [5]: insoluble or only slightly soluble in THF
- relative hygroscopicity [1]: hygroscopic (greater than 2% and less than 15% weight loss after incubation in 75% relative humidity at 25 °C for 8 hours)
